Assay results published in US20260216214A1, “ANALGESIC COMPOSITIONS, METHOD OF MANUFACTURE AND USES THEREOF” (University of Connecticut, priority 2022, published 2026).
“Also recorded” adds a separate entry of the source. Structures can show the parent of a compound that is named as a salt.

How the values were obtained:
[1] = test system: LPS activated macrophages; experiment: Cytokine gene expression by RT-PCR in LPS activated bone marrow macrophages; type: cell-based; settings: PEA 50 μM in DMSO, LPS 200 ng/ml, 24 hours; versus LPS alone
Description: Bone marrow macrophages were cultured for 24 hours, followed by treatment with lipopolysaccharides (LPS) from Escherichia coli O111:B4 (to activate macrophages) and the endocannabinoid molecule, dissolved in dimethyl sulfoxide (DMSO). After 24 hours of treatment, the cells are lysed, and the RNA collected. Gene expression is determined using RT-PCR. The expression of inflammatory cytokines such as Tumor Necrosis Factor Alpha (TNF-α), Interleukin-1-Beta […] and Interleukin-6 are used to determine the anti-inflammatory effect of the endocannabinoid solution. For example, macrophages were cultured for 24 hours and treated with LPS (200 ng/ml) and PEA (50 μM). After 24 hours, cells were lysed, and the RNA collected.
Bone marrow macrophages are cultured for 24 hours, followed by treatment with lipopolysaccharides (to activate macrophages) and the endocannabinoid dissolved in DMSO or endocannabinoid nanoparticle formulation at the same concentration. 24 hours after treatment, the cells were lysed, and the RNA collected. Gene expression is determined using RT-PCR. The expression of inflammatory cytokines such as Tumor Necrosis Factor Alpha (TNF-α), and Interleukin-1-Beta (IL1β) is used to determine the anti-inflammatory effect of the endocannabinoid solution.

MIA induced OA rats = experiment: Paw withdrawal threshold with Von Frey filaments in MIA induced OA rats (Examples 1-2); type: in vivo, rat
From the text: Von Frey data typically refers to experimental data collected using the von Frey filaments or hairs, which are instruments commonly used in neuroscience and behavioral research to assess mechanical sensitivity or tactile allodynia (an increased sensitivity to touch, often associated with pain or discomfort) in animals, particularly rodents. The von Frey test involves applying calibrated filaments of varying forces to the skin of an animal, usually the hind paw of a rodent. The animal's response is overserved to determine its sensitivity to mechanical stimuli. The data collected during von Frey testing may include a) Threshold Response: The force or bending pressure at which the animal first responds to the filament. This is often referred to as the “withdrawal threshold” and is an indicator of the animal's sensitivity to touch; b) Response Frequency: The number of positive responses (e.g., paw withdrawal, licking, or shaking) to the application of the von Frey filaments. This information provides a measure of the intensity or frequency of the animal's response to the mechanical stimulus; and c) Response Latency: The time it takes for the animal to respond after the application of the von Frey filament. A shorter response latency may indicate increased sensitivity.
The injections were 50 μL each and the Bupivacaine HCL (1.5 mg/mL) was dissolved in 0.9% saline. […] FIG. 1 depicts the locations in the knee where the periarticular injections of only bupivacaine were administered.
Periarticular injections of local anesthetics into these specific locations can prolong the duration of analgesia compared to intra-articular injections into the knee joint. […]
FIG. 3 is a graph that depicts the change from the baseline pre-injury values of the animals versus time in days. […] FIG. 3 depicts the paw withdrawal threshold as measured using Von Frey filaments. in MIA induced OA rats.

[2] = test system: female Sprague Dawley Rats injected with mono-iodoacetate to induce OA; experiment: Joint diameter (vernier caliper) as measure of joint inflammation in MIA induced OA rats; type: in vivo, rat; settings: periarticular, bupivacaine HCl 1.5 mg/ml, 50 μL/location
Description: This example was conducted to determine in-vivo inflammation. […] The joint inflammation is assessed via vernier caliper measurements. For example, female Sprague Dawley Rats were injected with 30 μL of mono-iodoacetate solution to induce OA. […] The injections were done under X-ray guidance using a C-arm for increased precision. Inflammation was assessed using a vernier caliper at the knee joint. […] Vernier caliper measurements show reduced inflammation in the bupivacaine+PEA nanoparticles group compared to the bupivacaine HCL only group at day 3 and day 7. At day 7, the inflammation in the bupivacaine+PEA nanoparticles group is not different from the baseline. At day 3, the inflammation in the bupivacaine HCl only group is higher than the MIA group. Statistical tests were conducted using only one way ANOVA with Brown Forsythe and Welsh tests.
FIG. 9 is a graph depicting joint diameter upto 21 days. […] The treatment groups are high does of bupivacaine HCl at 1 location (N=4), periarticular PEA nanoparticles at 2 locations +high does bupivacaine HCL at 1 location (N=5) with control of MIA (3 mg; N=6). The treatment groups with PEA nanoparticles show anti-inflammatory effects for 3 weeks. Statistical tests were conducted using only one way ANOVA with Brown Forsythe and Welsh tests.

[3] = test system: female Sprague Dawley Rats injected with mono-iodoacetate to induce OA; experiment: Paw withdrawal threshold with Electronic Von Frey in MIA induced OA rats (Examples 8-9); type: in vivo, rat
Description: This example was conducted to determine in-vivo pain response. […] Pain response was assessed using Von Frey filaments that measure mechanical allodynia. Paw withdrawal threshold was measured using Electronic Von Frey [IITC]. For example, female Sprague Dawley Rats were injected with 30 μL of mono-iodoacetate solution to induce OA. […] The results were compared to rodents with 2 injections of bupivacaine HCl in 0.9% saline (1.5 mg/ml) in those specific periarticular locations. […] FIG. 10 depicts electronic Von Frey measurements done with treatment groups using bupivacaine HCL periarticularly injected at 2 locations alone and periarticular injection of PEA nanoparticles with bupivacaine HCL at 2 locations.
This example was conducted to determine the effect of increasing the dosage of the local anesthetic as commonly 5 mg/mL bupivacaine is used clinically. […] For example, female Sprague Dawley Rats were injected with 30 μL of mono-iodoacetate solution (MIA) to induce OA.
Pain response was measured using Von Frey measurements. […] The PEA nanoparticles with high dose of bupivacaine HCL extended pain relief more than 4 weeks compared to a few hours in the high dose bupivacaine HCL alone group. […]

| Compound | gene expression of IL6 [1] | gene expression of ILβ [1] | gene expression of TNF-α [1] | duration of efficacy (analgesia) (MIA induced OA rats; intraarticular injection of same amount of bupivacaine HCL) | duration of efficacy (analgesia) (MIA induced OA rats; periarticular injection at 4 locations, 50 μL each, 1.5 mg/mL in 0.9% saline) | pain relief versus disease control (paw withdrawal threshold, change from baseline) (MIA induced OA rats; periarticular injections at 1, 2 or 4 locations) | joint diameter at day 3 [2] | duration of pain relief ([3]; bupivacaine 3 mg/ml, 50 μL at one location (superior lateral)) | hypoalgesic and analgesic efficacy on increasing the bupivacaine dose ([3]; bupivacaine increased from 1.5mg/ml to 3 mg/mL (0.15% to 0.3%), HCl) |
| --- | --- | --- | --- | --- | --- | --- | --- | --- | --- |
| CCCCCCCCCCCCCCCC(=O)NCCO [PEA, palmitoylethanolamide] | significantly less than in the LPS alone control group | significantly less than in the LPS alone control group | significantly less than in the LPS alone control group |  |  |  |  |  |  |
| CCCCN1CCCCC1C(=O)Nc1c(C)cccc1C (stereo not drawn) [bupivacaine HCL, bupivacaine HCl] |  |  |  | 3 days | 17 days | prolonged pain relief compared to the disease control | significantly increased joint diameter or inflammation compared to the injection of MIA alone | a few hours | significant reduction in the hypoalgesic and analgesic effect; also recorded: significantly reduced the efficacy |
